Laboratory results published in publication PMC9833666, “Designing and identifying β-hairpin peptide macrocycles with antibiotic potential” (Science Advances, 2023).
Entries after “also recorded” stand apart in the source; their conditions may differ. Where two headings read alike, the source gives them in different places. Bridge positions count the residues as written; N and C are the ends. Ends that are not written are not given here. Peptide text beside a SMILES is read from it.

Key:
E. coli W3110 = test: Surface-localized antimicrobial display (SLAY), log2 fold change in reads; type: cell-based, Escherichia coli; conditions: 3 h 37°C; for l2FC_IPTG_15: induced (15 μM IPTG, low induction) vs uninduced; for l2FC_IPTG_100: induced (100 μM IPTG, high induction) vs uninduced
Experimental: SLAY procedures have been detailed previously ([25], [26]). Briefly, 100 μl of E. coli W3110 frozen cells containing the pooled SynCH plasmid library were recovered in 10 ml of LB supplemented with carbenicillin (75 μg/ml) for 2 hours. The culture was then back-diluted to an OD of 0.05, and three triplicate 5-ml cultures were set up in LB supplemented with carbenicillin (75 μg/ml). Triplicate reactions included uninduced (0 μM IPTG), low induction (15 μM IPTG), and high induction (100 μM IPTG). All triplicate cultures were then grown for 3 hours at 37°C. Plasmids from each triplicate culture were isolated via Miniprep, and Illumina sequencing primers (see table S6) were used to produce an amplicon via PCR from plasmids from each culture containing a unique i7 barcode identifier. Amplicons were then gel extracted, cleaned, concentrated, and sent to Genewiz for next-generation sequencing by Illumina HiSeq technology with 30% added Phi-X DNA.
Methods of SLAY analysis have been previously described elsewhere. Here, raw sequencing reads were trimmed of adapter sequences using Flexbar ([30]) and then assessed for quality via FastQC ([31]). Next, trimmed reads were mapped to a reference derived from all possible SynCH sequences using Kallisto ([32]). Last, log2 fold change estimates and other relevant statistics were calculated using DESeq2 ([33]).

Escherichia coli W3110 = type: cell-based; conditions: for Ec W3110 MIC MH: E. coli W3110, MH medium; for W3110 MIC MHII: E. coli W3110, MHII medium; for Ec W3110 MIC RPMI: E. coli W3110, RPMI medium
[1] = High-resolution LC-MS, percentage with intramolecular disulfide bond (%S-S); type: physicochemical
Experimental: Stock peptides were diluted into PBS (pH 7.4) at 0.1 mg/ml in a volume of 150 μl and placed into 2-ml autosampler vials with small volume inserts (Fisherbrand, 03-391-8). Samples were separated by a C8 LC column, and an extracted ion chromatogram was generated for the most prevalent charge state isotopes. Mass spectra were generated for each extracted LC peak using an Agilent Technologies 6546 Accurate Mass quadrupole orthogonal acceleration–time-of-flight LC-MS instrument. Analysis was performed using Agilent MassHunter Qualitative software v10. The isotope distribution for each LC peak from each sample was compared to predicted distributions created using Agilent’s Isotope Distribution Calculator. Percentages of molecules with disulfide bonds was determined by comparing the area under the curve for each LC peak containing a disulfide bond over the total area of all relevant peaks (sum area %) and reported as a mean of three technical replicates ± 1 SD.

[2] = test system: Single-donor human red blood cells; test: Hemolysis assay; type: cell-based
In short: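 Peptides at 300 μg/ml (SySA library) or 128 μg/ml (SySA-5 optimization library) were incubated in triplicate with washed single-donor RBCs (1 × 10^9 cells/ml) for 3 h at 37 °C. Supernatant A540 was background-normalized to PBS and expressed relative to 1% Triton X-100 (100% hemolysis).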

[3] = test system: Acinetobacter baumannii AB5075
[4] = Circular dichroism (CD) spectroscopy (secondary structure, aggregation); type: physicochemical; conditions: CD at 450 µg/ml to 50 µg/ml, 10 mM potassium phosphate pH 7.4
[5] = 100% fetal bovine serum, replicate 1
[6] = 100% fetal bovine serum, replicate 2
[7] = 100% fetal bovine serum, replicate 3

Row | Compound | l2FC_IPTG_15 (E. coli W3110) | l2FC_IPTG_100 (E. coli W3110) | Ec W3110 MIC MH (Escherichia coli W3110) [µg/mL] | W3110 MIC MHII (Escherichia coli W3110) [µg/mL] | Ec W3110 MIC RPMI (Escherichia coli W3110) [µg/mL] | %S-S [1] [%] | W3110 MIC RPMI (Escherichia coli W3110; W3110) [µg/mL] | W3110 MIC MH (Escherichia coli W3110; W3110) [µg/mL] | also measured
1 | CLRIRVNDRRRGVKITLEVC (disulfide 1-20 (inferred)) | 0.457 | 0.630 | – | – | – | – | – | – | –
2 | RGGRLCYCRRRFCVCVGR (disulfide (positions not given here)) [Protegrin] | – | – | 0.5 | 8 | 0.5 | 100 | – | – | hemolysis [2]: 41.84%
3 | CC(C)C[C@@H]1NC(=O)[C@H](CCCNC(=N)N)NC(=O)[C@H](C(C)C)NC(=O)[C@H](CCCNC(=N)N)NC(=O)[C@H](CC(C)C)NC(=O)[C@@H](N)CSSC[C@@H](C(=O)O)NC(=O)[C@H](C(C)C)NC(=O)[C@H](CCC(N)=O)NC(=O)[C@H](CC(C)C)NC(=O)[C@H](CO)NC(=O)[C@H](C(C)C)NC(=O)[C@H](CCCCN)NC(=O)[C@H](C(C)C)NC(=O)[C@H](CCCNC(=N)N)NC(=O)CNC(=O)[C@H](CCCNC(=N)N)NC(=O)[C@H](CCCNC(=N)N)NC(=O)[C@H](CC(N)=O)NC(=O)[C@H](CC(N)=O)NC1=O [SySA-5] (H-CLRVRLNNRRGRVKVSLQVC-OH; disulfide 1-20; N-terminus and C-terminus assumed) | – | – | 16 | 128 | 4 | 100 | 4 | – | W3110 MIC MH (Escherichia coli W3110; E. coli W3110, standard Mueller-Hinton broth, 37°C, 18-24 h, median of n=3): 16 µg/mL; AB5075 MIC FBS [3, 5]: >128 µg/mL; AB5075 MIC FBS [3, 6]: >128 µg/mL; AB5075 MIC FBS [3, 7]: >128 µg/mL; AB5075 MIC FBS ([3]; AB5075): > 128 µg/mL; AB5075 MIC MH ([3]; AB5075): 32 µg/mL; AB5075 MIC MH ([3]; Mueller-Hinton, replicate 1): 64 µg/mL; AB5075 MIC MH ([3]; Mueller-Hinton, replicate 2): 32 µg/mL; AB5075 MIC MH ([3]; Mueller-Hinton, replicate 3): 32 µg/mL
4 | CRIKIDVDDGRRRVRLELQC (disulfide 1-20 (inferred)) | 0.041 | 0.249 | – | – | – | – | – | – | –
5 | CVTIRVDNGGGGLRITLQVC (disulfide 1-20 (inferred)) | -0.299 | 0.025 | – | – | – | – | – | – | –
6 | CC(C)C[C@@H]1NC(=O)CNC(=O)[C@H](CCCNC(=N)N)NC(=O)[C@H](CCCNC(=N)N)NC(=O)[C@H](CCCNC(=N)N)NC(=O)[C@H](CC(N)=O)NC(=O)[C@H](CC(N)=O)NC(=O)[C@H](CC(C)C)NC(=O)[C@H](CCCNC(=N)N)NC(=O)[C@H](C(C)C)NC(=O)[C@H](CCCNC(=N)N)NC(=O)[C@H](C(C)C)NC(=O)[C@@H](N)CSSC[C@@H](C(=O)O)NC(=O)[C@H](C(C)C)NC(=O)[C@H](CCC(N)=O)NC(=O)[C@H](CC(C)C)NC(=O)[C@H](CO)NC(=O)[C@H](C(C)C)NC(=O)[C@H](CCCNC(=N)N)NC1=O [SySA-29] (H-CVRVRLNNRRRGLRVSLQVC-OH; disulfide 1-20; N-terminus and C-terminus assumed) | – | – | 16 | > 128 | 8 | 100 | 8 | 16 | –
7 | CC(C)C[C@@H]1NC(=O)[C@H](CO)NC(=O)[C@H](C(C)C)NC(=O)[C@H](CCCCN)NC(=O)[C@H](C(C)C)NC(=O)[C@H](CCCNC(=N)N)NC(=O)[C@H](CCCNC(=N)N)NC(=O)[C@H](CCCNC(=N)N)NC(=O)CNC(=O)[C@H](CC(N)=O)NC(=O)[C@H](CC(N)=O)NC(=O)[C@H](CC(C)C)NC(=O)[C@H](CCCNC(=N)N)NC(=O)[C@H](C(C)C)NC(=O)[C@H](CCCNC(=N)N)NC(=O)[C@H](C(C)C)NC(=O)[C@@H](N)CSSC[C@@H](C(=O)O)NC(=O)[C@H](C(C)C)NC(=O)[C@H](CCC(N)=O)NC1=O [SySA-26] (H-CVRVRLNNGRRRVKVSLQVC-OH; disulfide 1-20; N-terminus and C-terminus assumed) | – | – | 16 | > 128 | 16 | 100 | 16 | 16 | –
8 | CC[C@H](C)[C@@H]1NC(=O)[C@H](CCCCN)NC(=O)[C@H](CC(C)C)NC(=O)CNC(=O)[C@H](CCCNC(=N)N)NC(=O)[C@H](CCCNC(=N)N)NC(=O)[C@H](CCCNC(=N)N)NC(=O)[C@H](CC(N)=O)NC(=O)[C@H](CC(N)=O)NC(=O)[C@H](CC(C)C)NC(=O)[C@H](CCCNC(=N)N)NC(=O)[C@H](C(C)C)NC(=O)[C@H](CCCNC(=N)N)NC(=O)[C@H](CC(C)C)NC(=O)[C@@H](N)CSSC[C@@H](C(=O)O)NC(=O)[C@H](C(C)C)NC(=O)[C@H](CCC(N)=O)NC(=O)[C@H](CC(C)C)NC(=O)[C@H](CO)NC1=O [SySA-61] (H-CLRVRLNNRRRGLKISLQVC-OH; disulfide 1-20; N-terminus and C-terminus assumed) | – | – | 32 | > 128 | 8 | 91.5 | 8 | 32 | –
9 | CC[C@H](C)[C@@H]1NC(=O)[C@H](CCCCN)NC(=O)[C@H](C(C)C)NC(=O)CNC(=O)[C@H](CCCNC(=N)N)NC(=O)[C@H](CCCNC(=N)N)NC(=O)[C@H](CCCNC(=N)N)NC(=O)[C@H](CC(N)=O)NC(=O)[C@H](CC(N)=O)NC(=O)[C@H](CC(C)C)NC(=O)[C@H](CCCNC(=N)N)NC(=O)[C@H](C(C)C)NC(=O)[C@H](CCCNC(=N)N)NC(=O)[C@H](C(C)C)NC(=O)[C@@H](N)CSSC[C@@H](C(=O)O)NC(=O)[C@H](C(C)C)NC(=O)[C@H](CCC(N)=O)NC(=O)[C@H](CC(C)C)NC(=O)[C@H](CO)NC1=O [SySA-49] (H-CVRVRLNNRRRGVKISLQVC-OH; disulfide 1-20; N-terminus and C-terminus assumed) | – | – | 32 | > 128 | 8 | 91.4 | 8 | 32 | molar ellipticity of CD spectrum at different concentrations (aggregation) [4]: remained relatively constant regardless of increased concentration; also recorded: equivalent at increased and reduced concentrations
10 | CLRIRVDDRRRRVRITLQVC (disulfide 1-20 (inferred)) | 0.055 | 0.322 | – | – | – | – | – | – | –
11 | CRIKINIDDRGGTVKLEVQC (disulfide 1-20 (inferred)) | -0.180 | -0.210 | – | – | – | – | – | – | –
12 | CC(C)C[C@@H]1NC(=O)[C@H](CCCNC(=N)N)NC(=O)[C@H](C(C)C)NC(=O)[C@@H]2CSSC[C@H](NC(=O)[C@H](CC(C)C)NC(=O)[C@H](CCCNC(=N)N)NC(=O)[C@H](C(C)C)NC(=O)[C@H](CCCNC(=N)N)NC(=O)[C@H](CC(C)C)NC(=O)[C@@H](N)CSSC[C@@H](C(=O)O)NC(=O)[C@H](C(C)C)NC(=O)[C@H](CCCNC(=N)N)NC1=O)C(=O)N[C@@H](CCCNC(=N)N)C(=O)N[C@@H](CCCNC(=N)N)C(=O)N[C@@H](CCCNC(=N)N)C(=O)N2 [SySA-5.22] (H-CLRVRLCRRRCVRLRVC-OH; disulfide 1-17, 7-11 (inferred); N-terminus and C-terminus assumed) | – | – | – | – | – | – | – | – | Fold Change Hemolysis ([2]; hemolysis at 128 µg/ml, fold change relative to SySA-5): 2.1; AB5075 MIC FBS [3, 5]: 64 µg/mL; AB5075 MIC FBS [3, 6]: 64 µg/mL; AB5075 MIC FBS [3, 7]: 64 µg/mL; AB5075 MIC MH ([3]; Mueller-Hinton, replicate 1): 32 µg/mL; AB5075 MIC MH ([3]; Mueller-Hinton, replicate 2): 8 µg/mL; AB5075 MIC MH ([3]; Mueller-Hinton, replicate 3): 32 µg/mL
